Drawing on patent US10646488B2 (Araxes Pharma LLC, priority 2016, dated 2020), this text covers Binding % for 21 compounds.

The structures appear in SMILES notation.

The first experiment deals with T1, KRAS G12C 1-169, his-tagged protein, GDP-loaded (Homo sapiens, UniProt P01116, G12C).
T1 construct: KRAS G12C 1-169, his-tagged protein, GDP-loaded
In words: Covalent binding (% modification) to KRAS G12C by mass spectrometry. Note: test concentration or dose not given here. As to conditions: covalent binding to KRAS G12C after a ten minute incubation period.
In the case of `C=CC(=O)N1C[C@H](C)N(c2nc(OC3CCN(C(C)C)CC3)nc3c(F)c(-c4c(C)ccc5[nH]ncc45)c(Cl)cc23)C[C@H]1C` [Compound 79, 1-((2R,5S)-4-(6-chloro-8-fluoro-2-((1-isopropyl-piperidin-4-yl)oxy)-7-(5-methyl-1H-indazol-4-yl)quinazolin-4-yl)-2,5-dimethyl-piperazin-1-yl) prop-2-en-1-one], the Binding % entry is recorded as “+++ (+++ indicates binding activity greater than 90%)”.
On the same count and under the same terms, under `C=CC(=O)N1CCN(c2nc(OCCN(CC)CC)nc3c(F)c(-c4c(C)ccc5cn[nH]c45)c(Cl)cc23)[C@@H](C)C1` [Compound 28, 1-((3S)-4-(6-chloro-2-(2-(diethylamino)ethoxy)-8-fluoro-7-(6-methyl-1H-indazol-7-yl)quinazolin-4-yl)-3-methyl-piperazin-1-yl) prop-2-en-1-one] stands “+++ (+++ indicates binding activity greater than 90%)”.
Still for that read-out and setting: as for `C=CC(=O)N1C[C@@H](C)N(c2nc(N3CC(N(C)C)C3)nc3c(F)c(-c4c(O)cccc4F)c(Cl)cc23)C[C@H]1C` [Compound 80, 1-((2R,5R)-4-(6-chloro-2-(3-(dimethylamino)azetidin-1-yl)-8-fluoro-7-(2-fluoro-6-hydroxyphenyl)quinazolin-4-yl)-2,5-dimethyl-piperazin-1-yl) prop-2-en-1-one], the entry is “+ (+ indicates binding activity up to 50%)”; as for `C=CC(=O)N1C[C@H](C)N(c2nc(OCCN(CC)CC)nc3c(F)c(-c4c(C)ccc5[nH]ncc45)c(Cl)cc23)C[C@H]1C` [Compound 77, 1-((2R,5S)-4-(6-chloro-2-(2-(diethylamino)ethoxy)-8-fluoro-7-(5-methyl-1H-indazol-4-yl)quinazolin-4-yl)-2,5-dimethyl-piperazin-1-yl) prop-2-en-1-one], “+++ (+++ indicates binding activity greater than 90%)”; as for `C=CC(=O)N1[C@H](C)CN(c2nc(N)nc3c(F)c(-c4cc(O)cc5ccccc45)c(Cl)cc23)C[C@@H]1C` [Compound 7, 1-((2S,6R)-4-(2-amino-6-chloro-8-fluoro-7-(3-hydroxynaphthalen-1-yl)quinazolin-4-yl)-2,6-dimethyl-piperazin-1-yl) prop-2-en-1-one], “++ (++ indicates binding activity from 50 to 90%)”.
For `C=CC(=O)N1C[C@H](C)N(c2nc(OCCN3CC(F)(F)C3)nc3c(F)c(-c4c(O)cccc4F)c(Cl)cc23)C[C@H]1C` [Compound 38, 1-((2R,5 S)-4-(6-Chloro-2-(2-(3,3-Difluoroazetidin-1-Yl)Ethoxy)-8-Fluoro-7-(2-Fluoro-6-Hydroxyphenyl)Quinazolin-4-Yl)-2,5-Dimethylpiperazin-1-Yl)Prop-2-En-1-One], the Binding % entry is “+++ (+++ indicates binding activity greater than 90%)”.

The same experiment, now with this note: covalent binding to KRAS G12C after a three minute incubation period.
As for `C=CC(=O)N1C[C@H](C)N(c2nc(OCCCN(C)C)nc3c(F)c(-c4c(C)ccc5[nH]ncc45)c(C(F)(F)F)cc23)C[C@H]1C` [Compound 215, 1-((2R,5S)-4-(2-(3-(dimethylamino)propoxy)-8-fluoro-7-(5-methyl-1H-indazol-4-yl)-6-(trifluoromethyl)quinazolin-4-yl)-2,5-dimethyl-piperazin-1-yl) prop-2-en-1-one], the Binding % entry is “+++ (+++ indicates binding activity greater than 90%)”.
As to `C=CC(=O)N1C[C@H](C)N(c2nc(N3CC(N)C3)nc3c(F)c(-c4c(C)ccc5cn[nH]c45)c(Cl)cc23)C[C@H]1C` [Compound 97, 1-((2R,5S)-4-(2-(3-aminoazetidin-1-yl)-6-chloro-8-fluoro-7-(6-methyl-1H-indazol-7-yl)quinazolin-4-yl)-2,5-dimethyl-piperazin-1-yl) prop-2-en-1-one], the Binding % entry is “++ (++ indicates binding activity from 50 to 90%)”.
The same measure, in the same setting: under `C=CC(=O)N1CCN(c2nc(N3CC(C)(N(C)C)C3)nc3c(F)c(-c4c(C)ccc5[nH]ncc45)c(Cl)cc23)C[C@H]1C` [Compound 171, 1-((2R)-4-(6-chloro-2-(3-(dimethylamino)-3-methylazetidin-1-yl)-8-fluoro-7-(5-methyl-1H-indazol-4-yl)quinazolin-4-yl)-2-methyl-piperazin-1-yl) prop-2-en-1-one] stands “++ (++ indicates binding activity from 50 to 90%)”.
On the same count and under the same terms, as for `C=CC(=O)N1C[C@H](C)N(c2nc(OCCN3CCC(F)(F)C3)nc3c(F)c(-c4c(C)ccc5cn[nH]c45)c(Cl)cc23)C[C@H]1C` [Compound 202, 1-((2R,5S)-4-(6-chloro-2-(2-(3,3-difluoro-pyrrolidin-1-yl)ethoxy)-8-fluoro-7-(6-methyl-1H-indazol-7-yl)quinazolin-4-yl)-2,5-dimethyl-piperazin-1-yl) prop-2-en-1-one], the entry is “+++ (+++ indicates binding activity greater than 90%)”; as for `C=CC(=O)N1C[C@H](C)N(c2nc(OCCN3CCC(F)(F)C3)nc3c(F)c(-c4c(O)ccc5ccccc45)c(Cl)cc23)C[C@H]1C` [Compound 213, 1-((2R,5S)-4-(6-chloro-2-(2-(3,3-difluoropyrrolidin-1-yl)ethoxy)-8-fluoro-7-(2-hydroxynaphthalen-1-yl)quinazolin-4-yl)-2,5-dimethyl-piperazin-1-yl) prop-2-en-1-one], “+ (+ indicates binding activity greater than 0% and up to 50%)”.
Still for that read-out and setting: under `C=CC(=O)N1C[C@H](C)N(c2nc(N3CC(N(C)C)C3)nc3c(F)c(-c4c(O)ccc5ccccc45)c(Cl)cc23)C[C@H]1C` [Compound 211, 1-((2R,5S)-4-(6-chloro-2-(3-(dimethylamino)azetidin-1-yl)-8-fluoro-7-(2-hydroxynaphthalen-1-yl)quinazolin-4-yl)-2,5-dimethyl-piperazin-1-yl) prop-2-en-1-one] stands “++ (++ indicates binding activity from 50 to 90%)”; under `C=CC(=O)N1C[C@H](C)N(c2nc(OCCN3CCC(F)(F)C3)nc3c(F)c(-c4c(O)cccc4F)c(Cl)cc23)C[C@H]1C` [Compound 203, 1-((2R,5S)-4-(6-chloro-2-(2-(3,3-difluoropyrrolidin-1-yl)ethoxy)-8-fluoro-7-(2-fluoro-6-hydroxyphenyl)quinazolin-4-yl)-2,5-dimethyl-piperazin-1-yl) prop-2-en-1-one], “+++ (+++ indicates binding activity greater than 90%)”.
With `C=CC(=O)N1C[C@H](C)N(c2nc(N3CC(N(C)C(C)C)C3)nc3c(F)c(-c4c(C)ccc5[nH]ncc45)c(Cl)cc23)C[C@H]1C` [Compound 123, 1-((2R,5S)-4-(6-chloro-8-fluoro-2-(3-(isopropyl (methyl)amino)azetidin-1-yl)-7-(5-methyl-1H-indazol-4-yl)quinazolin-4-yl)-2,5-dimethyl-piperazin-1-yl) prop-2-en-1-one], the Binding % result was “+ (+ indicates binding activity greater than 0% and up to 50%)”.
Same read-out and setting: as for `C=CC(=O)N1C[C@H](C)N(c2nc(N3CC(N(C)C4CCC4)C3)nc3c(F)c(-c4c(O)cccc4F)c(Cl)cc23)C[C@H]1C` (atropisomer, axis not shown) [Compound 139, 1-((2R,5S)-4-(6-chloro-2-(3-(cyclobutyl (methyl)amino)azetidin-1-yl)-8-fluoro-7-((R)-2-fluoro-6-hydroxyphenyl)quinazolin-4-yl)-2,5-dimethyl-piperazin-1-yl) prop-2-en-1-one], the entry is “+ (+ indicates binding activity greater than 0% and up to 50%)”.
For the compound `C=CC(=O)N1C[C@H](C)N(c2nc(N3CC(N(CC)CC)C3)nc3c(F)c(-c4c(C)ccc5cn[nH]c45)c(Cl)cc23)C[C@H]1C` [Compound 129, 1-((2R,5S)-4-(6-chloro-2-(3-(diethylamino)azetidin-1-yl)-8-fluoro-7-(6-methyl-1H-indazol-7-yl)quinazolin-4-yl)-2,5-dimethyl-piperazin-1-yl) prop-2-en-1-one], the Binding % entry was “++ (++ indicates binding activity from 50 to 90%)”.
Still for that read-out and setting: as for `C=CC(=O)N1C[C@H](C)N(c2nc(N3CC(N)C3)nc3c(F)c(-c4c(C)ccc5[nH]ncc45)c(Cl)cc23)C[C@H]1C` [Compound 165, 1-((2R,5S)-4-(2-(3-aminoazetidin-1-yl)-6-chloro-8-fluoro-7-(5-methyl-1H-indazol-4-yl)quinazolin-4-yl)-2,5-dimethyl-piperazin-1-yl) prop-2-en-1-one], the entry is “++ (++ indicates binding activity from 50 to 90%)”; as for `C=CC(=O)N1C[C@H](C)N(c2nc(N3CC(N(C)CC)C3)nc3c(F)c(-c4c(O)cccc4F)c(Cl)cc23)C[C@H]1C` [Compound 98, 1-((2R,5S)-4-(6-chloro-2-(3-(ethyl(methyl)amino)azetidin-1-yl)-8-fluoro-7-(2-fluoro-6-hydroxyphenyl)quinazolin-4-yl)-2,5-dimethyl-piperazin-1-yl) prop-2-en-1-one], “++ (++ indicates binding activity from 50 to 90%)”; as for `C=CC(=O)N1C[C@H](C)N(c2nc(COCc3ncccc3F)nc3c(F)c(-c4c(C)ccc5[nH]ncc45)c(Cl)cc23)C[C@H]1C` [Compound 142, 1-((2R,5S)-4-(6-chloro-8-fluoro-2-(((3-fluoro-pyridin-2-yl)methoxy)methyl)-7-(5-methyl-1H-indazol-4-yl)quinazolin-4-yl)-2,5-dimethyl-piperazin-1-yl) prop-2-en-1-one], “++ (++ indicates binding activity from 50 to 90%)”.
Same read-out and setting: as for `C=CC(=O)N1C[C@H](C)N(c2nc(N3CC4(CCOCC4)C3)nc3c(F)c(-c4c(O)cccc4F)c(Cl)cc23)C[C@H]1C` [Compound 159, 1-((2R,5S)-4-(6-chloro-8-fluoro-7-(2-fluoro-6-hydroxyphenyl)-2-(7-oxa-2-azaspiro[3.5]nonan-2-yl)quinazolin-4-yl)-2,5-dimethyl-piperazin-1-yl) prop-2-en-1-one], the entry is “++ (++ indicates binding activity from 50 to 90%)”; as for `C=CC(=O)N1C[C@H](C)N(c2nc(OCCCN(C)C)nc3c(F)c(-c4c(C)ccc5cn[nH]c45)c(Cl)cc23)C[C@H]1C` [Compound 191, 1-((2R,5S)-4-(6-chloro-2-(3-(dimethylamino)propoxy)-8-fluoro-7-(6-methyl-1H-indazol-7-yl)quinazolin-4-yl)-2,5-dimethyl-piperazin-1-yl) prop-2-en-1-one], “+++ (+++ indicates binding activity greater than 90%)”.
